Data from ChEMBL document CHEMBL4831506, “Discovery of novel trimethoxyphenylbenzo[d]oxazoles as dual tubulin/PDE4 inhibitors capable of inducing apoptosis at G2/M phase arrest in glioma and lung cancer cells” (Eur J Med Chem, 2021).
Activity calls are given as the source filed them. The rule behind the calls is not given here.

Columns and labels:
A549 [1] = assay: Antiproliferative activity against human A549 cells after 48 hrs by MTT assay; format: functional, cell-based; details: A549, 48 h
NCI-H460 = assay: Antiproliferative activity against human NCI-H460 cells after 48 hrs by MTT assay; format: functional, cell-based; details: NCI-H460, 48 h
MCF7 = assay: Antiproliferative activity against human MCF7 cells after 48 hrs by MTT assay; format: functional, cell-based; details: MCF7, 48 h
[2] = molecular target: 3',5'-cyclic-AMP phosphodiesterase 4C (Homo sapiens, UniProt Q08493); assay: Inhibition of PDE4 CAT (unknown origin)
Chain of 3',5'-cyclic-AMP phosphodiesterase 4C (Q08493 whole entry): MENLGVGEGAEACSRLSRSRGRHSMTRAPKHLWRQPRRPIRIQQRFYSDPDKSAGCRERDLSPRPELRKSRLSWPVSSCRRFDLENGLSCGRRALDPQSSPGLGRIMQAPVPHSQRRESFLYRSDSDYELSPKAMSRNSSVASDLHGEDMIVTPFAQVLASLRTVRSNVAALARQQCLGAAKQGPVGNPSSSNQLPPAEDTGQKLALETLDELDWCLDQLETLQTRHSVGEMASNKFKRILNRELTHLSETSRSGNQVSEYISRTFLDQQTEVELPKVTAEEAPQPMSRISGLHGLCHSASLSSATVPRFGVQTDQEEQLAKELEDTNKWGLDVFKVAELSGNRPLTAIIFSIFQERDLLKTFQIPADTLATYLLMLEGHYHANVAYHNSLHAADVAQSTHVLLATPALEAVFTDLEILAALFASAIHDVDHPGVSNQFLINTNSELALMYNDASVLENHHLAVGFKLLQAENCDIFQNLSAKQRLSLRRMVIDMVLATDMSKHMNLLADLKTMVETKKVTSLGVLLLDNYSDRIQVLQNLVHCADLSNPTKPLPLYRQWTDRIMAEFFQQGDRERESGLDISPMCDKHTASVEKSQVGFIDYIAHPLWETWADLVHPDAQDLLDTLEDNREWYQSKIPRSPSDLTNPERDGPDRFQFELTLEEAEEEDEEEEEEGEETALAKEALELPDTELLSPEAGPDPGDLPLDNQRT

A549 [3] = assay: Cell cycle arrest in human A549 cells assessed as G0/G1 phase at 500 nM incubated for 24 hrs by propidium iodide staining based flow cytometry analysis (reference value: 79.14%); format: functional
A549 [4] = assay: Cell cycle arrest in human A549 cells assessed as G0/G1 phase at 50 nM measured after 24 hrs by propidium iodide staining based flow cytometry analysis (reference value: 79.14%); format: functional
A549 [5] = assay: Cell cycle arrest in human A549 cells assessed as S phase at 50 nM measured after 24 hrs by propidium iodide staining based flow cytometry analysis (reference value: 14.78%); format: functional
A549 [6] = assay: Cell cycle arrest in human A549 cells assessed as G2/M phase at 200 nM measured after 24 hrs by propidium iodide staining based flow cytometry analysis (reference value: 6.08%); format: functional
A549 [7] = assay: Cell cycle arrest in human A549 cells assessed as S phase at 200 nM measured after 24 hrs by propidium iodide staining based flow cytometry analysis (reference value: 14.78%); format: functional
U-251 [8] = assay: Cell cycle arrest in human U-251 cells assessed as G0/G1 phase at 200 nM measured after 24 hrs by propidium iodide staining based flow cytometry analysis (reference value: 67.34%); format: functional
U-251 [9] = assay: Cell cycle arrest in human U-251 cells assessed as G2/M phase at 200 nM measured after 24 hrs by propidium iodide staining based flow cytometry analysis (reference value: 14.43%); format: functional
U-251 [10] = assay: Cell cycle arrest in human U-251 cells assessed as S phase at 200 nM measured after 24 hrs by propidium iodide staining based flow cytometry analysis (reference value: 18.23%); format: functional
U-251 [11] = assay: Cell cycle arrest in human U-251 cells assessed as G2/M phase at 500 nM measured after 24 hrs by propidium iodide staining based flow cytometry analysis (reference value: 14.43%); format: functional
U-251 [12] = assay: Cell cycle arrest in human U-251 cells assessed as S phase at 500 nM measured after 24 hrs by propidium iodide staining based flow cytometry analysis (reference value: 18.23%); format: functional
U-251 [13] = assay: Cell cycle arrest in human U-251 cells assessed as G2/M phase at 1000 nM measured after 24 hrs by propidium iodide based flow cytometry analysis (reference value: 14.43%); format: functional
U-251 [14] = assay: Cell cycle arrest in human U-251 cells assessed as S phase at 1000 nM measured after 24 hrs by propidium iodide staining based flow cytometry analysis (reference value: 18.23%); format: functional
Tubulin (Homo sapiens) = Tubulin (Homo sapiens) (UniProt P68371+Q9H4B7+P0DPH7+P68366+Q13509+Q71U36+P04350+Q3ZCM7+P07437+P68363+Q9BQE3+Q6PEY2+Q13885+Q9BVA1+Q9BUF5); assay: Inhibition of tubulin assembly in human A549 cells measured after 24 hrs; format: cell-based
A549 [15] = assay: Induction of apoptosis in human A549 cells assessed as increase in apoptotic cells at 500 nM measured after 24 hrs by PI/FITC analysis (reference value: 1.437%); format: functional
U-251 [16] = assay: Induction of apoptosis in human U-251 cells assessed as increase in apoptotic cells at 500 nM measured after 24 hrs by PI/FITC analysis (reference value: 2.39%); format: functional
A549 [17] = assay: Induction of apoptosis in human A549 cells assessed as increase in late apoptotic cells at 500 nM measured after 24 hrs by PI/FITC analysis (reference value: 0.955%); format: functional
A549 [18] = assay: Induction of apoptosis in human A549 cells assessed as increase in necrotic cells at 500 nM measured after 24 hrs by PI/FITC analysis (reference value: 0.365%); format: functional
A549 [19] = assay: Induction of apoptosis in human A549 cells assessed as increase in viable cells at 50 nM measured after 24 hrs by PI/FITC analysis (reference value: 98.4%); format: functional
A549 [20] = assay: Induction of apoptosis in human A549 cells assessed as increase in early apoptotic cells at 50 nM measured after 24 hrs by PI/FITC analysis (reference value: 0.955%); format: functional
A549 [21] = assay: Induction of apoptosis in human A549 cells assessed as increase in late apoptotic cells at 50 nM measured after 24 hrs by PI/FITC analysis (reference value: 0.955%); format: functional
A549 [22] = assay: Induction of apoptosis in human A549 cells assessed as increase in viable cells at 200 nM measured after 24 hrs by PI/FITC analysis (reference value: 98.4%); format: functional
A549 [23] = assay: Induction of apoptosis in human A549 cells assessed as increase in early apoptotic cells at 200 nM measured after 24 hrs by PI/FITC analysis (reference value: 0.955%); format: functional
A549 [24] = assay: Induction of apoptosis in human A549 cells assessed as increase in necrotic cells at 200 nM measured after 24 hrs by PI/FITC analysis (reference value: 0.365%); format: functional
U-251 [25] = assay: Induction of apoptosis in human U-251 cells assessed as increase in viable cells at 200 nM measured after 24 hrs by PI/FITC analysis (reference value: 98.3%); format: functional
U-251 [26] = assay: Induction of apoptosis in human U-251 cells assessed as increase in early apoptotic cells at 200 nM measured after 24 hrs by PI/FITC analysis (reference value: 1.12%); format: functional
U-251 [27] = assay: Induction of apoptosis in human U-251 cells assessed as increase in late apoptotic cells at 200 nM measured after 24 hrs by PI/FITC analysis (reference value: 0.311%); format: functional
U-251 [28] = assay: Induction of apoptosis in human U-251 cells assessed as increase in viable cells at 500 nM measured after 24 hrs by PI/FITC analysis (reference value: 98.3%); format: functional
U-251 [29] = assay: Induction of apoptosis in human U-251 cells assessed as increase in early apoptotic cells at 500 nM measured after 24 hrs by PI/FITC analysis (reference value: 1.12%); format: functional
U-251 [30] = assay: Induction of apoptosis in human U-251 cells assessed as increase in late apoptotic cells at 500 nM measured after 24 hrs by PI/FITC analysis (reference value: 0.311%); format: functional
U-251 [31] = assay: Induction of apoptosis in human U-251 cells assessed as increase in necrotic cells at 500 nM measured after 24 hrs by PI/FITC analysis (reference value: 0.301%); format: functional
U-251 [32] = assay: Induction of apoptosis in human U-251 cells assessed as increase in early apoptotic cells at 1000 nM measured after 24 hrs by PI/FITC analysis (reference value: 1.12%); format: functional
A549 [33] = assay: Cell cycle arrest in human A549 cells assessed as decrease in cdc25C expression by Western blot analysis; format: functional, cell-based; details: dose 50-500 nM

Compound `COc1cc(-c2cccc3nc(-c4ccc5cc[nH]c5c4)oc23)cc(OC)c1OC` has an IC50 (A549 [1]) of 55 nM, an IC50 (NCI-H460) of 24 nM and an IC50 (MCF7) greater than 25000 nM. For the same compound, the IC50 [2] was 1250 nM, the Activity (A549 [3]) was 3.89% and the Activity (A549 [4]) was 55.78%. It also gave an Activity (A549 [5]) of 24.79%, an Activity (A549 [6]) of 61.33% and an Activity (A549 [7]) of 23.43%. For the same compound, the Activity (U-251 [8]) was 43.71%, the Activity (U-251 [9]) was 37.97% and the Activity (U-251 [10]) was 18.32%. It also gave an Activity (U-251 [11]) of 42.9%, an Activity (U-251 [12]) of 22.47% and an Activity (U-251 [13]) of 71.69%. For the same compound, the Activity (U-251 [14]) was 14.77%, the inhibition (Tubulin (Homo sapiens)) was “Active” and the Activity (A549 [15]) was 26.5%. For the same compound, the Activity (U-251 [16]) was 20.98%, the Activity (A549 [17]) was 15.4% and the Activity (A549 [18]) was 2.84%. The Activity (A549 [19]) was 86.9%, the Activity (A549 [20]) was 5.32% and the Activity (A549 [21]) was 7.23%. The Activity (A549 [22]) was 79.8%, the Activity (A549 [23]) was 9.7% and the Activity (A549 [24]) was 1.61%. For the same compound, the Activity (U-251 [25]) was 98%, the Activity (U-251 [26]) was 3.09% and the Activity (U-251 [27]) was 6.95%. The Activity (U-251 [28]) was 83.1%, the Activity (U-251 [29]) was 4.61% and the Activity (U-251 [30]) was 9.13%. The Activity (U-251 [31]) was 2.92%, the Activity (U-251 [32]) was 5.18% and the Activity (A549 [33]) was “Dose-Dependent Effect”.
